In US9334314B2, “Peptide compounds derived from melanotransferrin and uses thereof” (Theratechnologies Inc., priority 2011, dated 2016):

Key:
[1] = test system: Human U87 glioblastoma tumor xenograft; assay: Xenograft model antitumor assay, U87; type: in vivo, nude mice; conditions: 40 mg/Kg/day; for inhibition of U87 tumor growth: nude mice (FIG. 5B); for U87 tumor growth: nude mice (FIGS. 4A and 4B)
Description: (§1) For tumor cell inoculation in nude mice, U-87 MG or NCI-H460 cells were harvested by trypsinization using a trypsin/EDTA solution. Cells were washed two times with phosphate-buffered saline Ca^2+—Mg^2+ free (PBS-CMF) and centrifuged. The resulting pellet was resuspended in 1% methyl-cellulose in serum-free EMEM at a concentration of 2.5×10^6 cells per 100 μL. Specific pathogen-free, female Crl:CD-1®-nuBR nude mice were anesthetized by O2/isoflurane inhalation and tumors were established by subcutaneous injection of 100 μL from cell suspension into the right flank. Tumors were measured in O2/isoflurane anesthetized mice twice a week using a digital caliper and tumor volume was calculated as: π/6×length×width^2. When the first mouse from control group held a tumor reaching 1000 mm^3, tumors were photographed and mice from every group were sacrificed. Experiments were performed on 8 animals for each group. Recombinant sMTf treatment toxicity was evaluated by monitoring the body weight of control and treated mice, considering that a weight loss>20% results in a toxic effect.

[2] = test system: Human NCI-H460 lung carcinoma tumor xenograft; assay: Xenograft model antitumor assay, NCI-H460; type: in vivo, nude mice; conditions: 40 mg/Kg/day; for inhibition of NCI-460 tumor growth: nude mice (FIG. 5A); for NCI-460 tumor growth: nude mice (FIGS. 3A to 3C)
Description: as §1

[3] = test system: in vivo neovascularisation induced by the growth factors FGF-2 and VEGF; assay: Matrigel plug angiogenesis assay; conditions: induced by FGF-2 and VEGF, nude mice, 7 days (FIG. 7)
Description: Angiogenesis is considered to be indicated by the growth of blood vessels from subcutaneous tissue into a solid piece of Matrigel™. Specific pathogen-free, female Crl:CD-1®-nuBR nude mice were obtained from Charles River Laboratories (Lasalle, QC). All of the mice used were 5-10 weeks of age. Prior to injection, heparin was incubated with or without bFGF (250 ng/mL) and VEGF165 (200 ng/mL) for 5 min, then 1 mL of MEM was added and the mixture diluted into phenol red-free Matrigel™ on ice for a final concentration of 12.4 μg/mL heparin. Then, specific pathogen-free, female Crl:CD-1®-nuBR nude mice were subcutaneously injected under anesthesia in the right flank with 0.5 mL of Matrigel™ alone or with Matrigel™ containing bFGF and VEGF. After 7 days, mice were sacrificed and Matrigel™ implants were harvested, washed with PBS and photographed. The remaining implants were immediately frozen and lyophilized overnight in order to evaluate the hemoglobin (Hb) concentrations. Testing of anti-angiogenic substances was initiated at the time of Matrigel™ implantation. Samples were then crushed and resuspended in 0.1% Triton™ X-100. Samples were mixed frequently for 1 h and centrifuged at 12,000×g for 15 min to remove particles. The concentration of hemoglobin (Hb) in the supernatant was then determined directly by measuring the absorbance at 405 nm and compared with a standard curve of purified Hb Hemoglobin content was expressed in μg Hb/mg of dried sample.

HMEC-1 endothelial cells [4] = assay: In vitro cell migration, HMEC-1 (Transwell / modified Boyden chambers); type: cell-based; conditions: various concentrations, dose-dependent manner (FIG. 2C)
Description: (§2) HMEC-1 and NCI-H460 cell migration was performed using Transwell filters (8 μm pore size) pre-coated with 0.15% gelatin for 2 hours at 37° C. or overnight at 4° C. The Transwell filters were washed once with PBS and assembled in 24-well plates. To study the effect of sMTf-derived peptides on cell migration, the lower chambers were filled with 300 μL of serum-free cell culture medium with or without various concentrations of peptides (2×). […] Approximately 50 000 cells (HMEC-1) and 100 000 cells (NCI-H460) were resuspended in 100 μL of serum free medium and added into the upper chamber of each Transwell. Then, 400 μL of serum free medium were added into the lower chamber with or without various concentrations of peptides (2×). After 1 hour incubation, 300 μL of cell culture medium containing 20% serum were added in the lower chamber to stimulate cell migration (final peptide concentration 1×). The plates were then placed at 37° C. in 5% CO2195% air for 4 hours (HMEC-1) or 18 hours (NCI-H460). Cells that had migrated to the lower surface of the filters were fixed for 30 minutes with 10% formalin, stained 30 minutes with 0.1% crystal violet/20% MeOH, and washed twice with PBS. […] The cell migration was quantified in four fields per filters at 50× magnification using microscopy computer-assisted imaging (Northern Eclipse™ software). Results are expressed as a percentage of cell migration of treated cells compared to untreated cells.

[5] = test system: NCI-H460 pulmonary carcinoma cells; assay: In vitro cell migration, NCI-H460 (Transwell / modified Boyden chambers); type: cell-based, human; conditions: various concentrations, dose-dependent manner (FIG. 2D)
Description: as §2

[6] = biological target: plasminogen activation by urokinase-type plasminogen activator (uPA) (Homo sapiens, UniProt P00749); assay: In vitro plasminogen activation by uPA (colorimetric VLK-pNA assay); type: biochemical; conditions: various concentrations of peptide (FIG. 1B)
Description: The in vitro enzymatic activity of uPA was measured using a colorimetric assay. To study the effect of sMTf-derived peptides on plasminogen activation by uPA, the reaction was performed in plasminogen activation buffer (50 mM Tris/HCl (pH 7.5), 150 mM NaCl and 50 mM CaCl2) in a final volume of 200 μL. This incubation medium also contained 30 nM plasminogen and 15 μg of the chromogenic plasmin substrate D-Val-Leu-Lys p-nitroanilide (VLK-pNA). The reaction was started by the addition of 1 ng of uPA. In this assay, the cleavage of VLK-pNA results in a p-nitroaniline molecule that absorbs at 405 nm. The reaction product was monitored at 37° C. during 3 hours every 2 minutes using a Microplate Thermomax™ Autoreader. The velocity of the VLK-pNA hydrolysis reaction was calculated and results are expressed in mAU/min.

[7] = test system: NCI-H460 pulmonary carcinoma cells; conditions: up to 50 μM, 24 hours incubation (FIG. 6)
Description: (§3) sMTf-derived peptides cellular toxicity on HMEC-1 and NCI-H460 were performed using [methyl-^3H]-thymidine incorporation assay. […] Approximately 5000 cells (HMEC-1 and NCI-H460) were resuspended with 200 μL of fresh culture medium, seeded into white 96-wells plate and placed at 37° C. in 5% CO2/95% air. After 24 hours, the medium was removed and 200 μL of serum-free cell culture medium was added to synchronize the cells. After another 24 hours, the medium was removed and 200 μL of fresh complete medium with or without various peptide concentrations were added. After 24 hours incubation with the peptides, the medium was remove and 200 μL (0.5 μCi) of [methyl-^3H]-thymidine was added and placed at 37° C. in 5% CO2/95% air for 4 hours. Then, the wells were gently washed twice with PBS at 37° C., incubated with 200 μL of EtOH:Acetic acid (3:1) for 10 minutes and dried under the hood. 50 μL of Microscint™-O was added per well, the plate was sealed, agitated for 3 minutes, and read on the microplate scintillation and luminescence counter (TopCount NXT, Packard). Results are expressed as a percentage of cell viability of treated cells compared to untreated cells.

HMEC-1 endothelial cells [8] = conditions: up to 50 μM, 24 hours incubation (FIG. 6)
Description: as §3

**Q.** For “Ac-F-R-C-L-V-E-N-A-G-D-V-A-F-V-R-H-K-K-K-NH2 (Ac-FRCLVENAGDVAFVRHKKK-NH2) [SEQ ID NO: 5]”, which “inhibition of U87 tumor growth” value [1] is on record?
**A.** Its value is 39%.

**Q.** And the U87 tumor growth [1]?
**A.** Its U87 tumor growth is “inhibit U87 tumor growth”.

**Q.** And the “inhibition of NCI-460 tumor growth” value [2]?
**A.** Its value is 45%.

**Q.** And the NCI-460 tumor growth [2]?
**A.** The NCI-460 tumor growth was “inhibit NCI-460 tumor growth”.

**Q.** And the “in vivo neovascularisation of Matrigel implant (hemoglobin content)” value (from here on “in vivo neovascularisation”) [3]?
**A.** Its value is “inhibit in vivo neovascularisation”.

**Q.** For “Ac-F-R-C-L-V-E-N-A-G-D-V-P-F-V-R-H-NH2 (Ac-FRCLVENAGDVPFVRH-NH2) [SEQ ID NO: 7]”, which “in vivo neovascularisation” value [3] is on record?
**A.** Its value is “inhibit in vivo neovascularisation”.

**Q.** Which results are given for “Ac-F-R-C-L-V-E-N-R-G-D-V-P-F-V-K-R-E-R-F-NH2 (Ac-FRCLVENRGDVPFVKRERF-NH2) [SEQ ID NO: 13]”?
**A.** migration of HMEC-1 cells (HMEC-1 endothelial cells [4]): inhibit the migration; in vivo neovascularisation of Matrigel implant (hemoglobin content) [3]: inhibit in vivo neovascularisation; migration of NCI-H460 cells [5]: inhibit the migration

**Q.** How did the “migration of HMEC-1 cells” value (HMEC-1 endothelial cells [4]) turn out when “Ac-F-R-C-L-V-E-N-R-G-D-V-P-F-V-T-R-I-R-NH2 (Ac-FRCLVENRGDVPFVTRIR-NH2) [SEQ ID NO: 15]” was run?
**A.** The value was “inhibit the migration”.

**Q.** What about the “inhibition of U87 tumor growth” value [1] of the same substance?
**A.** The value was 74%.

**Q.** And the U87 tumor growth [1]?
**A.** Its U87 tumor growth is “inhibit U87 tumor growth”.

**Q.** And the “inhibition of NCI-460 tumor growth” value [2]?
**A.** Its value is 37%.

**Q.** What about the “in vivo neovascularisation” value [3] of the same substance?
**A.** Its value is “inhibit in vivo neovascularisation”.

**Q.** And the “migration of NCI-H460 cells” value [5]?
**A.** The value was “inhibit the migration”.

**Q.** How did the “migration of HMEC-1 cells” value (HMEC-1 endothelial cells [4]) turn out when “Ac-FRCLVENAGDVAFVRH-NH2 [SEQ ID NO: 2, Ac-F-R-C-L-V-E-N-A-G-D-V-A-F-V-R-H-NH2]” was run?
**A.** The value was “inhibit the migration”.

**Q.** What about the “plasminogen cleavage by uPA” value [6] of the same substance?
**A.** Its value is “stimulates plasminogen cleavage by uPA in a dose-dependent manner”.

**Q.** What about the “cellular toxicity on NCI-H460 cells” value [7] of the same substance?
**A.** Its value is “do not demonstrate any cellular toxicity”.

**Q.** And the “cellular toxicity on HMEC-1 cells” value (HMEC-1 endothelial cells [8])?
**A.** The value was “do not demonstrate any cellular toxicity”.

**Q.** What about the “migration of NCI-H460 cells” value [5] of the same substance?
**A.** Its value is “inhibit the migration”.

**Q.** With “Ac-YSGAFRMLAEGAGDVAFVKHKKK-NH2 (Ac-YSGAFRMLAEGAGDVAFVKHKKK-NH2) [SEQ ID NO: 9]” as the substance, how does the “inhibition of NCI-460 tumor growth” value [2] read?
**A.** Its value is 42%.

**Q.** What about the NCI-460 tumor growth [2] of the same substance?
**A.** The NCI-460 tumor growth was “inhibit NCI-460 tumor growth”.

**Q.** What about the “in vivo neovascularisation” value [3] of the same substance?
**A.** Its value is “inhibit in vivo neovascularisation”.

**Q.** Which “inhibition of NCI-460 tumor growth” value [2] does the source give for “SEQ ID NO: 10: sMTf-derived peptide; sequence shown only as a drawing in Table II (FRCLVENAGDVAFVRHKKKKKKKHRVFAVDGANEVLCRF)” here?
**A.** The value was 69%.

**Q.** And the NCI-460 tumor growth [2]?
**A.** The NCI-460 tumor growth was “inhibit NCI-460 tumor growth”.
